Measured values published in patent publication US5071850A, “2,3-dihydro-3-arylalkylaminoalkyl-4H-1,3-benzoxazin-4-one derivatives, their preparation and their application as medicinal products which are useful in therapy” (Pierre Fabre Medicament, priority 1988, dated 1991).

Legend:
[1] = Finkelstein and Chiang, J. Med. Chem. 11, 1038 (1968); cited from earlier work
[2] = Acute intravenous toxicity in mice (LD50, Miller and Tainter); conditions: mouse, in vivo, mice weighing 20 to 22 g
Description: The chemical compounds described above were subjected to toxicity controls. This study was carried out on conventional mice weighing 20 to 22 g. The watersoluble salts of the compounds of general formula I were administered intravenously. The 50% lethal dose (LD50) is calculated according to the method of Miller and Tainter (Proc. Soc. Exp. Biol. Med. 1944, 57, 261).

anesthetized rats = assay: Coronary ligation in anesthetized rats (antiarrhythmic activity and heart rate); assay type: in vivo; conditions: for % fall in heart rate after 1 min: 1 min after injection; for % fall in heart rate after 1 min / % fall in heart rate after 10 min: % change relative to controls; for % fall in heart rate after 10 min: 10 min after injection; for % fall in arrhythmias: coronary ligation
Source text: a) The technique of coronary ligation in anesthetized rats according to Clark et al. (J. Pharm. […] SC denotes the percentage reduction in disorders of rhythm induced by these compounds, n denotes the number of animals.

[3] = tested on: rats anesthetized with pentobarbital sodium; assay: Bradycardic effect and intracardiac conduction times (ECG, arterial pressure) in pentobarbital-anesthetized rats; assay type: in vivo; conditions: for % ABP (mean arterial blood pressure) / % HR (heart rate): % change at peak of action; for % modification of the ECG intervals: PQ (atrioventricular conduction time) / % modification of the ECG intervals: QRS (intraventricular conduction time) / % modification of the ECG intervals: QTS / % modification of the ECG intervals: TP (electrocardiac diastole): at peak of action
Description: b) The bradycardic effect and the analysis of the intracardiac conduction times were studied on rats anesthetized with pentobarbital sodium (40 mg/kg ip) and left in spontaneous ventilation. The electrocardiogram is recorded simultaneously in the standard leads OI, OII and OIII; the arterial blood pressure is measured on a femoral artery. The percentage changes are considered at the peak of action. The results relating to the compounds A, B, J, G and N are given in Table III, by way of non-limiting example.

conscious dogs = assay: Bradycardic effect in conscious dogs with hydralazine-raised heart rate (Kobinger and Lillie); assay type: in vivo; conditions: 1 mg/kg iv; for Heart rate after: after test product; for Heart rate after / Heart rate Change: hydralazine tachycardia; for Heart rate before: before test product, after hydralazine 1 mg/kg iv
Description: When the latter has stabilized, the test products are injected intravenously.

Right atrium = assay: Chronotropic effect on isolated spontaneously beating right atrium; parameters: species or system guineapig; conditions: Cavia porcellus, spontaneous rhythm, percentage change; for inhibition at 0.3 µg/mL: 0.3 ug/ml; for inhibition at 1 µg/mL: 1 ug/ml
Description: (§1) c) Finally, the chronotropic and inotropic activities were measured on isolated guineapig atria placed in isolated organ cells. The organs are then connected to force gauges. The right atrium, beating in a spontaneous rhythm, enables the negative chronotropic effects of the products to be assessed. As regards the left atria, these are electrically stimulated at a fixed rhythm so as to evaluate actions on the inotropic effect. The percentage changes are recorded in Table V for the compounds A, B, G and J, by way of non-limiting examples.

Left atrium = assay: Inotropic effect on isolated electrically stimulated left atrium; parameters: species or system guineapig; conditions: Cavia porcellus, electrically stimulated at fixed rhythm, percentage change; for inhibition at 0.3 µg/mL: 0.3 ug/ml; for inhibition at 1 µg/mL: 1 ug/ml
Description: as §1

Solubility in water = assay type: physicochemical

| SMILES | LD50 [2] | % fall in heart rate after 1 min (anesthetized rats; 2.5 mg/kg iv) | % fall in heart rate after 10 min (anesthetized rats; 2.5 mg/kg iv) | % fall in arrhythmias (anesthetized rats; 2.5 mg/kg iv) | % fall in heart rate after 1 min (anesthetized rats; 10 mg/kg iv) | % fall in heart rate after 10 min (anesthetized rats; 10 mg/kg iv) | % fall in arrhythmias (anesthetized rats; 10 mg/kg iv) | % ABP (mean arterial blood pressure) ([3]; 3 mg/kg iv) | % HR (heart rate) ([3]; 3 mg/kg iv) | % modification of the ECG intervals: PQ (atrioventricular conduction time) ([3]; 3 mg/kg iv) | % modification of the ECG intervals: QRS (intraventricular conduction time) ([3]; 3 mg/kg iv) | % modification of the ECG intervals: QTS ([3]; 3 mg/kg iv) | % modification of the ECG intervals: TP (electrocardiac diastole) ([3]; 3 mg/kg iv) | Heart rate after (conscious dogs) | Heart rate before (conscious dogs) | Heart rate Change (conscious dogs) | inhibition at 0.3 µg/mL (Right atrium) | inhibition at 1 µg/mL (Right atrium) | inhibition at 0.3 µg/mL (Left atrium) | inhibition at 1 µg/mL (Left atrium) | further results |
| --- | --- | --- | --- | --- | --- | --- | --- | --- | --- | --- | --- | --- | --- | --- | --- | --- | --- | --- | --- | --- | --- |
| CCN(CC)CCN1COc2ccccc2C1=O [3-(2-diethylaminoethyl)-2,3-dihydro-4H-1,3-benzoxazin-4-one] |  |  |  |  |  |  |  |  |  |  |  |  |  |  |  |  |  |  |  |  | pharmacological result [1]: inactive |
| COc1ccc(CCN(C)CCCN2COc3cc(OC)c(OC)cc3C2=O)cc1OC.Cl [Compound B, 2,3-Dihydro-6,7-dimethoxy-3-{3-[(methyl)(3,4-dimethoxyphenethyl)amino]propyl}-4H-1,3-benzoxazin-4-one hydrochloride] | 48 mg/kg | -50% | -28% | -38% | -66% | -60% | -80% | -34% | -55% | +17% | +24% | +75% | +211% | 105 bts/min | 175 bts/min | -40% | 27% | 64% | 9% | 6.5% | % ABP (mean arterial blood pressure) ([3]; 1 mg/kg iv): -16%; % HR (heart rate) ([3]; 1 mg/kg iv): -32%; % modification of the ECG intervals: PQ (atrioventricular conduction time) ([3]; 1 mg/kg iv): +9%; % modification of the ECG intervals: QRS (intraventricular conduction time) ([3]; 1 mg/kg iv): +12%; % modification of the ECG intervals: QTS ([3]; 1 mg/kg iv): +38%; % modification of the ECG intervals: TP (electrocardiac diastole) ([3]; 1 mg/kg iv): +95%; solubility (Solubility in water): > 100 mg/mL |
| COc1ccc(CCN(C)CCCN2COc3ccccc3C2=O)cc1OC.Cl [Compound A, 2,3-Dihydro-3-{3-[(methyl)(3,4-dimethoxyphenethyl)amino]propyl}-4H-1,3-benzoxazin-4-one hydrochloride] | 27 mg/kg | -30% | -11% | -9% | -50% | -19% | -76% | -33% | -31% | +26% | +11% | +29% | +76% | 140 bts/min | 215 bts/min | -35% | 15% | 19% | 16% | 15% | solubility (Solubility in water): 100 mg/mL |
